Experimental data taken from ChEMBL document CHEMBL1201862, “PubChem BioAssay data set” (2004).
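Values below derive from 48-hour exposures of cells grown in 96-well plates, with endpoints linearly interpolated between the two concentrations bracketing the appropriate inhibition level. GI50 = concentration required for 50% inhibition of growth.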 Activity calls are given as the source filed them. Rule as the data show it: active = GI50 up to about 1.1 µM and inactive = higher.

Experiments:
Experiment in all cases: DTP human tumour cell line panel, 48 h
SW-620 = system: SW-620
ACHN = system: ACHN
TK-10 = system: TK-10
NCI-H460 = system: NCI-H460
EKVX = system: EKVX
MOLT-4 = system: MOLT-4
SN12C = system: SN12C
COLO 205 = system: COLO 205
K562 = system: K562
SK-MEL-2 = system: SK-MEL-2
HCT-15 = system: HCT-15
RXF 393 = system: RXF 393
SK-OV-3 = system: SK-OV-3
SNB-75 = system: SNB-75

Row | SMILES | GI50 (SW-620) | GI50 (ACHN) | GI50 (TK-10) | GI50 (NCI-H460) | GI50 (EKVX) | GI50 (MOLT-4) | GI50 (SN12C) | GI50 (COLO 205) | GI50 (K562) | GI50 (SK-MEL-2) | GI50 (HCT-15) [µM] | GI50 (RXF 393) | GI50 (SK-OV-3) | GI50 (SNB-75)
1 | O=C(Nc1cc(Cl)c(Cl)cc1Cl)C(=O)C(C(=O)c1ccc(Cl)c(Cl)c1)C1OC(=O)c2ccccc21 (centres undefined) | 15.6 µM (inactive) | 14.5 µM (inactive) | 26.1 µM (inactive) | 3.07 µM (inactive) | 19.6 µM (inactive) | 0.187 µM (active) | 21.6 µM (inactive) | 15 µM (inactive) | 4.2 µM (inactive) | 14 µM (inactive) | 19.6 | 8.3 µM (inactive) | 26.1 µM (inactive) | –
2 | O=C(CC1C(=O)Nc2ccccc2S1(=O)=O)Nc1ccc(Cl)cc1 (centres undefined) | 31.3 µM (inactive) | 20.4 µM (inactive) | 20 µM (inactive) | 30.3 µM (inactive) | – | 13.5 µM (inactive) | 34 µM (inactive) | – | 18.2 µM (inactive) | 21.1 µM (inactive) | 31.6 | 15.9 µM (inactive) | – | 16.9 µM (inactive)
3 | O=C(NC1CC1)c1c(O)[nH]c(=S)[nH]c1=O | > 100 µM (inactive) | > 100 µM (inactive) | > 100 µM (inactive) | > 100 µM (inactive) | – | > 100 µM (inactive) | > 100 µM (inactive) | > 100 µM (inactive) | > 100 µM (inactive) | > 100 µM (inactive) | > 100 | – | > 100 µM (inactive) | > 100 µM (inactive)
4 | COC1CC(O)C(OC(=O)c2ccccc2)C(C)O1 (centres undefined) | > 100 µM (inactive) | – | > 100 µM (inactive) | > 100 µM (inactive) | – | > 100 µM (inactive) | > 100 µM (inactive) | > 100 µM (inactive) | > 100 µM (inactive) | – | > 100 | – | – | –
5 | O=c1oc2c3ccc4ccccc4c3n(CCCN3CCCCC3)c2c2ccccc12 | 5.62 µM (inactive) | > 100 µM (inactive) | 42.1 µM (inactive) | 14.7 µM (inactive) | > 100 µM (inactive) | 3.24 µM (inactive) | – | 10.9 µM (inactive) | 10.2 µM (inactive) | > 100 µM (inactive) | 29.1 | – | > 100 µM (inactive) | 52.2 µM (inactive)
6 | COc1ccc(NC(=O)CC/C(CC(=O)C(C)(C)C)=N\NC(=O)C(N)=O)cc1 | > 100 µM (inactive) | > 100 µM (inactive) | – | > 100 µM (inactive) | > 100 µM (inactive) | > 100 µM (inactive) | > 100 µM (inactive) | > 100 µM (inactive) | 84.9 µM (inactive) | > 100 µM (inactive) | > 100 | > 100 µM (inactive) | > 100 µM (inactive) | –
7 | COc1ccccc1NC(=O)C1=C(C)NC(C)=C(C(=O)Nc2ccccc2OC)C1C1=CC=COC1 | 6.7 µM (inactive) | 9.23 µM (inactive) | 16.5 µM (inactive) | 3.92 µM (inactive) | 10.8 µM (inactive) | 13.3 µM (inactive) | 60.7 µM (inactive) | 57 µM (inactive) | 3.78 µM (inactive) | – | 4.59 | – | 10.4 µM (inactive) | 23 µM (inactive)
8 | CC1(c2cccc(C3CC4(CCC3=O)OCCCCO4)c2)OCCO1 (centres undefined) | > 100 µM (inactive) | > 100 µM (inactive) | > 100 µM (inactive) | > 100 µM (inactive) | – | > 100 µM (inactive) | > 100 µM (inactive) | > 100 µM (inactive) | > 100 µM (inactive) | > 100 µM (inactive) | > 100 | – | > 100 µM (inactive) | 92.7 µM (inactive)
9 | Cc1ccccc1/C=C/C(=O)c1ccccc1 | > 10 µM (inactive) | 18.8 µM (inactive) | – | 17.8 µM (inactive) | 17.5 µM (inactive) | 18.7 µM (inactive) | > 10 µM (inactive) | 21.4 µM (inactive) | 20.6 µM (inactive) | > 10 µM (inactive) | > 10 | – | 27.4 µM (inactive) | 19.5 µM (inactive)
